13 compounds from US20260022142A1, “MACROCYCLIC IMMUNOMODULATORS” (Bristol-Myers Squibb Company, priority 2022, published 2026) can be followed below.

SMILES strings stand for the structures. Bridge positions count the residues as written; N and C are the ends. Square brackets hold non-standard residues; d marks the D form. Peptide text beside a SMILES is read from it. * marks the point of attachment. ξ: configuration not given here. Phe(4-COOH) = N[C@@H](Cc1ccc(C(=O)O)cc1)C(=O)O; Bip = N[C@@H](Cc1ccc(-c2ccccc2)cc1)C(=O)O; Phe(3-Me) = Cc1cccc(C[C@H](N)C(=O)O)c1; Cha = N[C@@H](CC1CCCCC1)C(=O)O; Cit = NC(=O)NCCC[C@H](N)C(=O)O; NMeN = CN[C@@H](CC(N)=O)C(=O)O; Thr(3ξ) = CC(O)[C@H](N)C(=O)O; hSer = N[C@@H](CCO)C(=O)O; Carboxymethyl = O=C(O)C*; NMeA = CN[C@@H](C)C(=O)O; Orn = NCCC[C@H](N)C(=O)O; Aun = NCCCCCCCCCCC(=O)O; Dab = NCC[C@H](N)C(=O)O; AEEA = NCCOCCOCC(=O)O

For the assay, the target named is T1, PD-1/PD-L1 interaction (PE-labeled human PD-L1-Ig binding to Jurkat cell line over-expressing human PD-1) (Homo sapiens, UniProt Q15116).
T1 construct: expressed in transfected cells; host or cells: Jurkat
T1 sequence (Q15116 25-288): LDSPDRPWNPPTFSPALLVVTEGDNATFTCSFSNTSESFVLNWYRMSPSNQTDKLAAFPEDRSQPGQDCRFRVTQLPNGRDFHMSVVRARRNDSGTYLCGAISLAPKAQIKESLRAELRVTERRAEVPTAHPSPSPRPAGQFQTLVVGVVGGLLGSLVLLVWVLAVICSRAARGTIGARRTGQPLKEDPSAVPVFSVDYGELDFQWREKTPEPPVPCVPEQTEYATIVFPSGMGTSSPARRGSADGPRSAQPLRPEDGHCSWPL
Nature of the assay: Jurkat-PD-1 Cell Binding High-Content Screening Assay (CBA). The class given is cell-based. The following applies: Jurkat cell line over-expressing human PD-1; PE-labeled PD-L1-Ig 20 nM final; read-out: Jurkat hPD1-PDL1 IC50. In a few lines: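 Binding of fluorescent PD-L1-Ig (phycoerythrin on Ig tag, 20 nM final, 1 h) measured by high-content imaging of fixed, Hoechst-counterstained Jurkat-hPD-1 cells. Compound added 2 h at 37° C beforehand, in DMEM with 10% fetal calf serum.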
Take `Cc1cccc(C[C@@H]2NC(=O)[C@H](CC(=O)O)NC(=O)[C@H](Cc3ccc(OCC(=O)O)cc3)NC(=O)[C@H](CCCNC(=N)N)NC(=O)CSC[C@@H](C(=O)N[C@@H](CCN)C(=O)NCCCCCCCCCCC(=O)O)NC(=O)[C@H](CCCN)NC(=O)[C@H](C(C)C)NC(=O)[C@H](CC3CCCCC3)NC(=O)[C@H](CCN)NC(=O)[C@@H](CC(C)C)NC(=O)[C@H](CCCN)NC(=O)[C@H](CCCNC(N)=O)NC(=O)[C@H](Cc3ccc(-c4ccccc4)cc3)NC(=O)[C@H](C(C)C)NC2=O)c1` [Compound 3306] ({CH2CO}-RY(Carboxymethyl)D[Phe(3-Me)]V[Bip][Cit][Orn][dL][Dab][Cha]V[Orn]C[Dab][Aun]-OH; thioether N-14): the IC50 (in general, the point on the concentration scale where inhibition reaches its midpoint) came to 7.9 nM.

Consider `Cc1cccc(C[C@@H]2NC(=O)[C@H](CC(=O)O)NC(=O)[C@H](Cc3ccc(OCC(=O)O)cc3)NC(=O)[C@H](CCCNC(=N)N)NC(=O)CSC[C@@H](C(=O)N[C@@H](CCN)C(=O)NCCCCCCCCCCC(=O)O)NC(=O)[C@H](C(C)O)NC(=O)[C@H](C(C)C)NC(=O)[C@H](CC3CCCCC3)NC(=O)[C@H](CCN)NC(=O)[C@@H](CC(C)C)NC(=O)[C@H](CCN)NC(=O)[C@H](CCCNC(N)=O)NC(=O)[C@H](Cc3ccc(-c4ccccc4)cc3)NC(=O)[C@H](C(C)C)NC2=O)c1` (stereo partly drawn) [Compound 3307] ({CH2CO}-RY(Carboxymethyl)D[Phe(3-Me)]V[Bip][Cit][Dab][dL][Dab][Cha]V[Thr(3ξ)]C[Dab][Aun]-OH; thioether N-14), for which the IC50 was 7.4 nM.

`Cc1cccc(C[C@@H]2NC(=O)[C@H](CC(=O)O)NC(=O)[C@H](Cc3ccc(OCC(=O)O)cc3)NC(=O)[C@H](CCCNC(=N)N)NC(=O)CSC[C@@H](C(=O)N[C@H](CC(N)=O)C(=O)NCCCCCCCCCCC(=O)O)NC(=O)[C@H](CCCN)NC(=O)[C@H](C(C)C)NC(=O)[C@H](CC3CCCCC3)NC(=O)[C@H](CCN)NC(=O)[C@@H](CC(C)C)NC(=O)[C@H](CCCN)NC(=O)[C@H](CCCNC(N)=O)NC(=O)[C@H](Cc3ccc(-c4ccccc4)cc3)NC(=O)[C@H](C(C)C)NC2=O)c1` [Compound 3311] ({CH2CO}-RY(Carboxymethyl)D[Phe(3-Me)]V[Bip][Cit][Orn][dL][Dab][Cha]V[Orn]C[dN][Aun]-OH; thioether N-14): the IC50 turned out to be 4.4 nM.

With `Cc1cccc(C[C@@H]2NC(=O)[C@H](CC(=O)O)NC(=O)[C@H](Cc3ccc(OCC(=O)O)cc3)NC(=O)[C@H](C(C)O)NC(=O)CSC[C@@H](C(=O)N[C@H](CC(N)=O)C(=O)NCCCCCCCCCCC(=O)O)NC(=O)[C@H](CCCN)NC(=O)[C@H](C(C)C)NC(=O)[C@H](CC3CCCCC3)NC(=O)[C@H](CCN)NC(=O)[C@@H](CC(C)C)NC(=O)[C@H](CCCN)NC(=O)[C@H](CCCNC(N)=O)NC(=O)[C@H](Cc3ccc(-c4ccccc4)cc3)NC(=O)[C@H](C(C)C)NC2=O)c1` (stereo partly drawn) [Compound 3312] ({CH2CO}-[Thr(3ξ)]Y(Carboxymethyl)D[Phe(3-Me)]V[Bip][Cit][Orn][dL][Dab][Cha]V[Orn]C[dN][Aun]-OH; thioether N-14), the IC50 is 4.4 nM.

Regarding `Cc1cccc(C[C@@H]2NC(=O)[C@H](CC(=O)O)NC(=O)[C@H](Cc3ccc(OCC(=O)O)cc3)NC(=O)[C@H](CCCNC(=N)N)NC(=O)CSC[C@@H](C(=O)NCCCCCCCCCCC(=O)O)NC(=O)[C@H](CCCN)NC(=O)[C@H](C(C)C)NC(=O)[C@H](CC3CCCCC3)NC(=O)[C@H](CCN)NC(=O)[C@@H](CC(C)C)NC(=O)[C@H](CCCN)NC(=O)[C@H](C(C)C)NC(=O)[C@H](Cc3ccc(-c4ccccc4)cc3)NC(=O)[C@H](C(C)C)NC2=O)c1` [Compound 3316] ({CH2CO}-RY(Carboxymethyl)D[Phe(3-Me)]V[Bip]V[Orn][dL][Dab][Cha]V[Orn]C[Aun]-OH; thioether N-14), the 50% inhibitory concentration (IC50) is 6.2 nM.

In the case of `Cc1cccc(C[C@@H]2NC(=O)[C@H](CC(=O)O)NC(=O)[C@H](Cc3ccc(OCC(=O)O)cc3)NC(=O)[C@H](CCCNC(=N)N)NC(=O)CSC[C@@H](C(=O)N(C)[C@@H](C)C(=O)NCCOCCOCC(=O)NCCCCCCCCCCC(=O)O)NC(=O)[C@H](CCCN)NC(=O)[C@H](C(C)C)NC(=O)[C@H](CC3CCCCC3)NC(=O)[C@H](CCN)NC(=O)[C@@H](CC(C)C)NC(=O)[C@H](CCN)NC(=O)[C@H](C(C)C)NC(=O)[C@H](Cc3ccc(-c4ccccc4)cc3)NC(=O)[C@H](C(C)C)NC2=O)c1` [Compound 3319] ({CH2CO}-RY(Carboxymethyl)D[Phe(3-Me)]V[Bip]V[Dab][dL][Dab][Cha]V[Orn]C[NMeA][AEEA][Aun]-OH; thioether N-14), the 50% inhibitory concentration (IC50) is 53.4 nM.

For `Cc1cccc(C[C@@H]2NC(=O)[C@H](CC(=O)O)NC(=O)[C@H](Cc3ccc(OCC(=O)O)cc3)NC(=O)[C@H](C(C)O)NC(=O)CSC[C@@H](C(=O)N(C)[C@@H](C)C(=O)NCCOCCOCC(=O)NCCCCCCCCCCC(=O)O)NC(=O)[C@H](CCCN)NC(=O)[C@H](C(C)C)NC(=O)[C@H](CC3CCCCC3)NC(=O)[C@H](CCN)NC(=O)[C@@H](CC(C)C)NC(=O)[C@H](CCN)NC(=O)[C@H](C(C)C)NC(=O)[C@H](Cc3ccc(-c4ccccc4)cc3)NC(=O)[C@H](C(C)C)NC2=O)c1` (stereo partly drawn) [Compound 3320] ({CH2CO}-[Thr(3ξ)]Y(Carboxymethyl)D[Phe(3-Me)]V[Bip]V[Dab][dL][Dab][Cha]V[Orn]C[NMeA][AEEA][Aun]-OH; thioether N-14), the IC50 came out at 68.5 nM.

Take `Cc1cccc(C[C@@H]2NC(=O)[C@H](CC(=O)O)NC(=O)[C@H](Cc3ccc(OCC(=O)O)cc3)NC(=O)[C@H](CCCNC(=N)N)NC(=O)CSC[C@@H](C(=O)N(C)[C@@H](CC(N)=O)C(=O)NCCOCCOCC(=O)NCCCCCCCCCCC(=O)O)NC(=O)[C@H](CCCN)NC(=O)[C@H](C(C)C)NC(=O)[C@H](CC3CCCCC3)NC(=O)[C@H](CCN)NC(=O)[C@@H](CC(C)C)NC(=O)[C@H](CCN)NC(=O)[C@H](C(C)C)NC(=O)[C@H](Cc3ccc(-c4ccccc4)cc3)NC(=O)[C@H](C(C)C)NC2=O)c1` [Compound 3321] ({CH2CO}-RY(Carboxymethyl)D[Phe(3-Me)]V[Bip]V[Dab][dL][Dab][Cha]V[Orn]C[NMeN][AEEA][Aun]-OH; thioether N-14): the IC50 turned out to be 51 nM.

As to `Cc1cccc(C[C@@H]2NC(=O)[C@H](CC(=O)O)NC(=O)[C@H](Cc3ccc(OCC(=O)O)cc3)NC(=O)[C@H](C(C)O)NC(=O)CSC[C@@H](C(=O)N(C)[C@@H](CC(N)=O)C(=O)NCCOCCOCC(=O)NCCCCCCCCCCC(=O)O)NC(=O)[C@H](CCCN)NC(=O)[C@H](C(C)C)NC(=O)[C@H](CC3CCCCC3)NC(=O)[C@H](CCN)NC(=O)[C@@H](CC(C)C)NC(=O)[C@H](CCN)NC(=O)[C@H](C(C)C)NC(=O)[C@H](Cc3ccc(-c4ccccc4)cc3)NC(=O)[C@H](C(C)C)NC2=O)c1` (stereo partly drawn) [Compound 3322] ({CH2CO}-[Thr(3ξ)]Y(Carboxymethyl)D[Phe(3-Me)]V[Bip]V[Dab][dL][Dab][Cha]V[Orn]C[NMeN][AEEA][Aun]-OH; thioether N-14), the IC50 was 36.8 nM.

On to `Cc1cccc(C[C@@H]2NC(=O)[C@H](CC(=O)O)NC(=O)[C@H](Cc3ccc(C(=O)O)cc3)NC(=O)[C@H](Cc3ccc(OCC(=O)O)cc3)NC(=O)CSC[C@@H](C(=O)NCCOCCOCC(=O)NCCCCCCCCCCC(=O)O)NC(=O)[C@H](CCO)NC(=O)[C@H](C(C)C)NC(=O)[C@H](CC3CCCCC3)NC(=O)[C@H](CCN)NC(=O)[C@@H](CC(C)C)NC(=O)[C@H](CCCN)NC(=O)[C@H](C(C)C)NC(=O)[C@H](Cc3ccc(-c4ccccc4)cc3)NC(=O)[C@H](C(C)C)NC2=O)c1` [Compound 3327] ({CH2CO}-Y(Carboxymethyl)[Phe(4-COOH)]D[Phe(3-Me)]V[Bip]V[Orn][dL][Dab][Cha]V[hSer]C[AEEA][Aun]-OH; thioether N-14), for which the IC50 turned out to be 31.4 nM.

In the case of `CC(=O)NCCCC[C@@H]1NC(=O)[C@H](Cc2ccc(-c3ccccc3)cc2)NC(=O)[C@H](C(C)C)NC(=O)[C@H](Cc2c[nH]c3ccccc23)NC(=O)[C@H](CC(=O)O)NC(=O)[C@H](Cc2ccc(OCC(=O)O)cc2)NC(=O)[C@H](CCCNC(=N)N)NC(=O)CSC[C@@H](C(=O)NCCOCCOCC(=O)NCCCCCCCCCCC(=O)O)NC(=O)[C@H](C(C)O)NC(=O)[C@H](C(C)C)NC(=O)[C@H](CC2CCCCC2)NC(=O)[C@H](CCN)NC(=O)[C@@H](CC(C)C)NC(=O)[C@H](CCCN)NC1=O` (stereo partly drawn) [Compound 3335] ({CH2CO}-RY(Carboxymethyl)DWV[Bip]K(Ac)[Orn][dL][Dab][Cha]V[Thr(3ξ)]C[AEEA][Aun]-OH; thioether N-14), the IC50 came to 8.2 nM.

For `CC(C)C[C@H]1NC(=O)[C@H](CCCN)NC(=O)[C@H](C(C)C)NC(=O)[C@H](Cc2ccc(-c3ccccc3)cc2)NC(=O)[C@H](CCO)NC(=O)[C@H](Cc2c[nH]c3ccccc23)NC(=O)[C@H](CC(=O)O)NC(=O)[C@H](Cc2ccc(OCC(=O)O)cc2)NC(=O)[C@H](CCCNC(=N)N)NC(=O)CSC[C@@H](C(=O)N[C@@H](CCCN)C(=O)NCCCCCCCCCCC(=O)O)NC(=O)[C@H](C(C)O)NC(=O)[C@H](C(C)C)NC(=O)[C@H](CC2CCCCC2)NC(=O)[C@H](CCN)NC1=O` (stereo partly drawn) [Compound 3338] ({CH2CO}-RY(Carboxymethyl)DW[hSer][Bip]V[Orn][dL][Dab][Cha]V[Thr(3ξ)]C[Orn][Aun]-OH; thioether N-14), the IC50 came out at 27.4 nM.

Turning to `CC(C)C[C@H]1NC(=O)[C@H](CCCN)NC(=O)[C@H](C(C)C)NC(=O)[C@H](Cc2ccc(-c3ccccc3)cc2)NC(=O)[C@H](C(C)C)NC(=O)[C@H](Cc2c[nH]c3ccccc23)NC(=O)[C@H](CC(=O)O)NC(=O)[C@H](Cc2ccc(OCC(=O)O)cc2)NC(=O)[C@H](CCCNC(=N)N)NC(=O)CSC[C@@H](C(=O)N[C@@H](CCCN)C(=O)NCCCCCCCCCCC(=O)O)NC(=O)[C@H](CCO)NC(=O)[C@H](C(C)C)NC(=O)[C@H](CC2CCCCC2)NC(=O)[C@H](CCN)NC1=O` [Compound 3339] ({CH2CO}-RY(Carboxymethyl)DWV[Bip]V[Orn][dL][Dab][Cha]V[hSer]C[Orn][Aun]-OH; thioether N-14), the IC50 is 8.7 nM.
